Source: patent US20210261512A1, “NOVEL COMPOUNDS” (INFLAZOME LIMITED, priority 2018, published 2021)

Legend:
NLRP3 [1] = target: T1, NLRP3 (Homo sapiens, UniProt Q96P20); experiment: THP-1 cells pyroptosis assay; assay type: cell-based; parameters: Seed THP-1 cells (25,000 cells/well) containing 1.0 μg/ml LPS; host or cells: THP-1; details: LPS 1.0 μg/ml, nigericin 5 μM, resazurin readout, 10 μM top dose (Example 2: top dose of 30 μM)
Summary of the method: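 THP-1 cells (25,000/well) primed with 1 μg/ml LPS in serum-free RPMI, treated with compound (8-point dilution, 10 μM top unless stated; 0.1% DMSO) 3 h at 37°C, then nigericin 5 μM 1 h. Viability read by resazurin (100 μM, 1-2 h) fluorescence; IC50 from 4-parameter fit.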

NLRP3 [2] = target: T1, NLRP3; experiment: Human whole blood IL1β release assay; assay type: cell-based; details: LPS 1 μg/ml, nigericin 10 μM, IL-1β AlphaLisa, 10 μM top dose (Example 2: top dose of 30 μM), read-out: HWB IC50
Summary of the method: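 Healthy-donor heparinised human whole blood with 1 μg/ml LPS, compound (8-point half-log dilution, 10 μM top dose unless stated; 0.1% DMSO vehicle) for 3 h at 37 °C, then nigericin 10 μM final for 1 h. Supernatant IL-1β by AlphaLISA; IC50 from 4-parameter variable-slope fit.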

T1 sequence (Q96P20 whole entry): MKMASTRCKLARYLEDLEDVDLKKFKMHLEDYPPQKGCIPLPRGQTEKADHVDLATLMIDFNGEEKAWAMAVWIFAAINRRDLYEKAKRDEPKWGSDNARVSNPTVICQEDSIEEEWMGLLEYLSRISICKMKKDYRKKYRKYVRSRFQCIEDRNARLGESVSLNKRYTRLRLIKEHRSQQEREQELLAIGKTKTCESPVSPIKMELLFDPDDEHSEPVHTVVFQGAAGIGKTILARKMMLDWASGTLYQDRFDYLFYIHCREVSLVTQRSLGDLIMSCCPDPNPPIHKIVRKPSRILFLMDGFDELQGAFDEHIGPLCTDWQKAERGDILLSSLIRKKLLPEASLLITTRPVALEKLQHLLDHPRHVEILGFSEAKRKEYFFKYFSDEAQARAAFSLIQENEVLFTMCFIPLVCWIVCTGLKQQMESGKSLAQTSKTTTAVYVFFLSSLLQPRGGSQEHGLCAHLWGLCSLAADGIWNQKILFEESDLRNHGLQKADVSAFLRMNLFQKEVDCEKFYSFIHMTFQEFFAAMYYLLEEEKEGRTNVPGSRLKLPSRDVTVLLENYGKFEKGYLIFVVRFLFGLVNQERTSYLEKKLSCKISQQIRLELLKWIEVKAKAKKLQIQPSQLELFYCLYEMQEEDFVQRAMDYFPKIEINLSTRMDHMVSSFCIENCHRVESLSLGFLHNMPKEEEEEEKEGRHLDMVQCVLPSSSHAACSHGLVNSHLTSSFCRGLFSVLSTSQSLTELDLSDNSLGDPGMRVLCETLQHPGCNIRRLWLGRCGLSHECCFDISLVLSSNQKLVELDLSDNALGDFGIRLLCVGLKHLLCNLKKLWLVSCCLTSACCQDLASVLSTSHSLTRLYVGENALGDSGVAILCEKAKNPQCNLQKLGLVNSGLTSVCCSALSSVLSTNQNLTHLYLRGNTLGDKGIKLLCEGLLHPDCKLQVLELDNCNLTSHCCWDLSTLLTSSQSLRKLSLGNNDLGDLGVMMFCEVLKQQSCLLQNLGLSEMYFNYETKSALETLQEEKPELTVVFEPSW

Structure (SMILES) | IC50 (NLRP3 [1]) | IC50 (NLRP3 [2])
COC1(c2cc(S(=O)(=O)c3nnc(Nc4c5c(cc6c4CCC6)CCC5)[nH]3)nn2C)COC1 [Example 12, N-(1,2,3,5,6,7-hexahydro-s-indacen-4-yl)-5-((5-(3-methoxyoxetan-3-yl)-1-methyl-1H-pyrazol-3-yl)sulfonyl)-4H-1,2,4-triazol-3-amine] | ≤ 1000 nM | ≤ 10 µM
COc1cc(-c2ccc3c(c2Nc2nnc(S(=O)(=O)N4CCC5(CCN5C)CC4)[nH]2)CCO3)ccn1 [Example 203, N-(5-(2-methoxypyridin-4-yl)-2,3-dihydrobenzofuran-4-yl)-5-((1-methyl-1,7-diazaspiro[3.5]nonan-7-yl)sulfonyl)-4H-1,2,4-triazol-3-amine] | ≤ 500 nM | ≤ 5 µM
[2H]C([2H])([2H])Oc1cc(-c2ccc3c(c2Nc2nnc(S(=O)(=O)N4CC5(CCN(C)C5)C4)[nH]2)CCO3)ccn1 [Example 195, N-(5-(2-(methoxy-d)pyridin-4-yl)-2,3-dihydrobenzofuran-4-yl)-5-((6-methyl-2,6-diazaspiro[3-4]octan-2-yl)sulfonyl)-4H-1,2,4-triazol-3-amine] | ≤ 500 nM | ≤ 0.5 µM
CN(C)C[C@@H]1CCN(S(=O)(=O)c2nnc(Nc3c4c(cc5c3CCC5)CCC4)[nH]2)C1 [Example 147, (S)-5-((3-((dimethylamino)methyl)pyrrolidin-1-yl)sulfonyl)-N-(1,2,3,5,6,7-hexahydro-s-indacen-4-yl)-4H-1,2,4-triazol-3-amine] | ≤ 500 nM | ≤ 0.5 µM
CN1CCCC1CNS(=O)(=O)c1nnc(Nc2c3c(cc4c2CCC4)CCC3)[nH]1 (stereo not drawn) [Example 95, 5-((1,2,3,5,6,7-hexahydro-s-indacen-4-yl)amino)-N-((1-methylpyrrolidin-2-yl)methyl)-4H-1,2,4-triazole-3-sulfonamide] | ≤ 1000 nM | ≤ 5 µM
CN(C)CC1CCN(S(=O)(=O)c2nnc(Oc3c4c(cc5c3CCC5)CCC4)[nH]2)C1 (stereo not drawn) [Example 286, 1-(1-((5-((1,2,3,5,6,7-hexahydro-s-indacen-4-yl)oxy)-4H-1,2,4-triazol-3-yl)sulfonyl)pyrrolidin-3-yl)-N,N-dimethylmethanamine] | ≤ 5000 nM | ≤ 10 µM
O=S(=O)(c1nnc(Nc2c3c(cc4c2CCC4)CCC3)[nH]1)N1CCCC1 [Example 122, N-(1,2,3,5,6,7-hexahydro-s-indacen-4-yl)-5-(pyrrolidin-1-ylsulfonyl)-4H-1,2,4-triazol-3-amine] | ≤ 5000 nM | ≤ 10 µM
CN(C)CCCNS(=O)(=O)c1nnc(Nc2c3c(cc4c2CCC4)CCC3)[nH]1 [Example 125, N-(3-(dimethylamino)propyl)-5-((1,2,3,5,6,7-hexahydro-s-indacen-4-yl)amino)-4H-1,2,4-triazole-3-sulfonamide] | ≤ 500 nM | ≤ 5 µM

Next, values leading:

IC50 (NLRP3 [1]) | IC50 (NLRP3 [2]) | Structure (SMILES)
≤ 1000 nM | ≤ 5 µM | O=S(=O)(c1nnc(Nc2c3c(cc4c2CCC4)CCC3)[nH]1)N1CC2(CCC(O)C2)C1 (stereo not drawn) [Example 346, 2-((5-((1,2,3,5,6,7-hexahydro-s-indacen-4-yl)amino)-4H-1,2,4-triazol-3-yl)sulfonyl)-2-azaspiro[3.4]octan-6-ol]
≤ 500 nM | ≤ 5 µM | CN(C)C(=O)Cn1ccc(S(=O)(=O)c2nnc(Nc3c4c(cc5c3CCC5)CCC4)[nH]2)n1 [Example 320, 2-(3-((5-((1,2,3,5,6,7-hexahydro-s-indacen-4-yl)amino)-4H-1,2,4-triazol-3-yl)sulfonyl)-1H-pyrazol-1-yl)-N,N-dimethylacetamide]
≤ 500 nM | ≤ 5 µM | COc1cc(-c2cc(F)cc(C3CC3)c2Nc2nnc(S(=O)(=O)N3CCC(N(C)C)CC3)[nH]2)ccn1 [Example 301, 1-((5-((2-cyclopropyl-4-fluoro-6-(2-methoxypyridin-4-yl)phenyl)amino)-1H-1,2,4-triazol-3-yl)sulfonyl)-N,N-dimethylpiperidin-4-amine]
≤ 500 nM | ≤ 10 µM | NS(=O)(=O)c1ccc(S(=O)(=O)c2nnc(Nc3c4c(cc5c3CCC5)CCC4)[nH]2)cc1 [Example 366, 4-((5-((1,2,3,5,6,7-hexahydro-s-indacen-4-yl)amino)-4H-1,2,4-triazol-3-yl)sulfonyl)benzenesulfonamide]
